# Laboratory results from publication PMC4806784 (Investigational new drugs, 2015).
# Assay: Safety and tolerability
# Type: in vivo
# [1] = Crossover from Panel 1 to Panel 2 (n = 4)
smiles,measurement,setting,value
O=C(O)[C@]1(Cc2cccc(Nc3nccs3)n2)CC[C@@H](Oc2cccc(Cl)c2F)CC1 [MK-5108],Drug-related AEs by SOC: Blood and lymphatic system disorders,Crossover (N = 4),2 (50.0) n (%)
same,Drug-related AEs by SOC: Gastrointestinal disorders,Crossover (N = 4),1 (25.0) n (%)
same,Drug-related AEs by SOC: General disorders and administration site conditions,Crossover (N = 4),2 (50.0) n (%)
same,Drug-related AEs by SOC: Infections and infestations,Crossover (N = 4),0 (0.0) n (%)
same,Drug-related AEs by SOC: Investigations,Crossover (N = 4),1 (25.0) n (%)
same,Drug-related AEs by SOC: Metabolism and nutrition disorders,Crossover (N = 4),2 (50.0) n (%)
same,Drug-related AEs by SOC: Musculoskeletal and connective tissue disorders,Crossover (N = 4),1 (25.0) n (%)
same,Drug-related AEs by SOC: Nervous system disorders,Crossover (N = 4),1 (25.0) n (%)
same,"Drug-related AEs by SOC: Respiratory, thoracic and mediastinal disorders",Crossover (N = 4),1 (25.0) n (%)
same,Drug-related AEs by SOC: Skin and subcutaneous tissue disorders,Crossover (N = 4),1 (25.0) n (%)
same,Drug-related AEs by SOC: Vascular disorders,Crossover (N = 4),0 (0.0) n (%)
same,"Patients with drug-related AEs, highest grade: Grade 1",Crossover (N = 4),1 (25.0) n (%)
same,"Patients with drug-related AEs, highest grade: Grade 2",Crossover (N = 4),0 (0.0) n (%)
same,"Patients with drug-related AEs, highest grade: Grade 3",Crossover (N = 4),1 (25.0) n (%)
same,"Patients with drug-related AEs, highest grade: Grade 4",Crossover (N = 4),1 (25.0) n (%)
same,Patients with no drug-related AEs,Crossover (N = 4),1 (25.0) n (%)
same,Patients with one or more drug-related AEs,Crossover (N = 4),3 (75.0) n (%)
same,Death,[1],0 n (%)
same,Discontinued treatment due to a drug-related AE,[1],0 n (%)
same,Discontinued treatment due to a drug-related SAE,[1],0 n (%)
same,Discontinued treatment due to an SAE,[1],0 n (%)
same,Discontinued treatment due to any AE,[1],0 n (%)
same,Patients with any AE,[1],4 (100.0) n (%)
same,Patients with drug-related AE,[1],3 (75.0) n (%)
same,Patients with no AE,[1],0 n
same,Patients with serious AE,[1],0 n (%)
same,Patients with serious drug-related AE,[1],0 n (%)
same,MTD,"MK-5108 MT, doses up to 1800 mg Q12hr",not established
same,tolerability,"MT, doses up to 1800 mg Q12hr (3600 mg/day)",generally well tolerated
same,patients experiencing a DLT,Panel 1 (MT),no patients
same,patients with a Grade 3 or 4 drug-related AE,Panel 1 (MT),No patients
same,AEs (all grades and doses) by SOC: General disorders and administration site conditions,"Panel 1 (MT), 11/14",78.6%
same,AEs (all grades and doses) by SOC: Gastrointestinal disorders,"Panel 1 (MT), 12/14",85.7%
same,Drug-related AEs by SOC: Blood and lymphatic system disorders,Panel 1: MK-5108 MT (N = 14),4 (28.6) n (%)
same,Drug-related AEs by SOC: Gastrointestinal disorders,Panel 1: MK-5108 MT (N = 14),7 (50.0) n (%)
same,Drug-related AEs by SOC: General disorders and administration site conditions,Panel 1: MK-5108 MT (N = 14),7 (50.0) n (%)
same,Drug-related AEs by SOC: Infections and infestations,Panel 1: MK-5108 MT (N = 14),0 (0.0) n (%)
same,Drug-related AEs by SOC: Investigations,Panel 1: MK-5108 MT (N = 14),2 (14.3) n (%)
same,Drug-related AEs by SOC: Metabolism and nutrition disorders,Panel 1: MK-5108 MT (N = 14),2 (14.3) n (%)
same,Drug-related AEs by SOC: Musculoskeletal and connective tissue disorders,Panel 1: MK-5108 MT (N = 14),1 (7.1) n (%)
same,Drug-related AEs by SOC: Nervous system disorders,Panel 1: MK-5108 MT (N = 14),3 (21.4) n (%)
same,"Drug-related AEs by SOC: Respiratory, thoracic and mediastinal disorders",Panel 1: MK-5108 MT (N = 14),1 (7.1) n (%)
same,Drug-related AEs by SOC: Skin and subcutaneous tissue disorders,Panel 1: MK-5108 MT (N = 14),1 (7.1) n (%)
same,Drug-related AEs by SOC: Vascular disorders,Panel 1: MK-5108 MT (N = 14),0 (0.0) n (%)
same,"Patients with drug-related AEs, highest grade: Grade 1",Panel 1: MK-5108 MT (N = 14),3 (21.4) n (%)
same,"Patients with drug-related AEs, highest grade: Grade 2",Panel 1: MK-5108 MT (N = 14),5 (35.7) n (%)
same,"Patients with drug-related AEs, highest grade: Grade 3",Panel 1: MK-5108 MT (N = 14),0 (0.0) n (%)
same,"Patients with drug-related AEs, highest grade: Grade 4",Panel 1: MK-5108 MT (N = 14),0 (0.0) n (%)
same,Patients with no drug-related AEs,Panel 1: MK-5108 MT (N = 14),6 (42.9) n (%)
same,Patients with one or more drug-related AEs,Panel 1: MK-5108 MT (N = 14),8 (57.1) n (%)
same,Death,Panel 1: MK-5108 MT (n = 14),1 (7.1) n (%)
same,Discontinued treatment due to a drug-related AE,Panel 1: MK-5108 MT (n = 14),0 n (%)
same,Discontinued treatment due to a drug-related SAE,Panel 1: MK-5108 MT (n = 14),0 n (%)
same,Discontinued treatment due to an SAE,Panel 1: MK-5108 MT (n = 14),1 (7.1) n (%)
same,Discontinued treatment due to any AE,Panel 1: MK-5108 MT (n = 14),2 (14.3) n (%)
same,Patients with any AE,Panel 1: MK-5108 MT (n = 14),14 (100.0) n (%)
same,Patients with drug-related AE,Panel 1: MK-5108 MT (n = 14),8 (57.1) n (%)
same,Patients with no AE,Panel 1: MK-5108 MT (n = 14),0 n
same,Patients with serious AE,Panel 1: MK-5108 MT (n = 14),4 (28.6) n (%)
same,Patients with serious drug-related AE,Panel 1: MK-5108 MT (n = 14),0 n (%)
same,patients experiencing a DLT,"Panel 2 (CT), 100 mg Q12hr (200 mg/day), febrile neutropenia (Grade 3)",one patient
same,patients experiencing any DLTs,"Panel 2 (CT), 150 mg Q12hr, 6 patients",None
same,DLTs,"Panel 2 (CT), 225 mg Q12hr (450 mg/day), febrile neutropenia (Grade 4) and infection (Grade 3)",2
same,AEs (all grades and doses) by SOC: Gastrointestinal disorders,"Panel 2 (CT), 12/17",70.6%
same,AEs (all grades and doses) by SOC: Metabolism and nutrition disorders,"Panel 2 (CT), 12/17",70.6%
same,AEs (all grades and doses) by SOC: Skin and subcutaneous tissue disorders,"Panel 2 (CT), 12/17",70.6%
same,patients with a Grade 3 or 4 drug-related AE,"Panel 2 (CT), 12/17",70.6%
same,AEs (all grades and doses) by SOC: Blood and lymphatic system disorders,"Panel 2 (CT), 15/17",88.2%
